Laboratory results reported in PMC4120670 (Kidney International, 2014).

Assays:
[1] = molecular target: T1, OAT2 (Homo sapiens, UniProt Q9Y694); test: Inhibition of OAT2 transport of 3′,5′-cyclic GMP; assay type: cell-based
T1 sequence (Q9Y694 1-548): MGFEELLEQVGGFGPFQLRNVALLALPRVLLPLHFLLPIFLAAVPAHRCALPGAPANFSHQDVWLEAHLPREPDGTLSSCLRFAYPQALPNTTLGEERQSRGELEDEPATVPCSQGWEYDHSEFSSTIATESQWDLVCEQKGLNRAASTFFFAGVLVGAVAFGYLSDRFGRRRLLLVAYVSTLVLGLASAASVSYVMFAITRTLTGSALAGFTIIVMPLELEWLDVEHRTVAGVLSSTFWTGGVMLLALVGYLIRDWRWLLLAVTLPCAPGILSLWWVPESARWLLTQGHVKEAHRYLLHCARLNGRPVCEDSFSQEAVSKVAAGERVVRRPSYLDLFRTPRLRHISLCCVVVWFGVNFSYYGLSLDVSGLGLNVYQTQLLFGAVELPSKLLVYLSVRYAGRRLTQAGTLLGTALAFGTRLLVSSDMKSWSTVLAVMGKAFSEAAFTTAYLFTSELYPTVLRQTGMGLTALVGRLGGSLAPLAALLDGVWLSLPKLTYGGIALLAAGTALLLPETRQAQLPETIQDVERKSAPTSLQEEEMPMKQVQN

[2] = molecular target: T2, OCT2 (Homo sapiens, UniProt O15244); test: Inhibition of OCT2 transport of tetraethylammonium; assay type: cell-based
T2 sequence (O15244 1-555): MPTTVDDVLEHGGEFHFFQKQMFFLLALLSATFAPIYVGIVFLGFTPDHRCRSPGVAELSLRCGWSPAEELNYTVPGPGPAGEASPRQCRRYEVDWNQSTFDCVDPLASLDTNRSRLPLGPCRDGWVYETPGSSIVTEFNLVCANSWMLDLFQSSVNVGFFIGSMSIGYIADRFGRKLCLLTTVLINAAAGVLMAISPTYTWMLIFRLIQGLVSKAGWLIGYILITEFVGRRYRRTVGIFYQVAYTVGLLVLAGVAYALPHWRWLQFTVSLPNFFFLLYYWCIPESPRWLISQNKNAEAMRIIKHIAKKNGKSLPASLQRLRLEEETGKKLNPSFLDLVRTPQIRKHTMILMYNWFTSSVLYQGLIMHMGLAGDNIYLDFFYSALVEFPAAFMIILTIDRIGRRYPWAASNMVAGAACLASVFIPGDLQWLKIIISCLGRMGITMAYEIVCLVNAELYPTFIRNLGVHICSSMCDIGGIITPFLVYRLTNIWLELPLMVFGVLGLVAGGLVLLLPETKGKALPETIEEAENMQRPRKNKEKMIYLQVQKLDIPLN

[3] = molecular target: T3, OCT3 (Homo sapiens, UniProt O75751); test: Inhibition of OCT3 transport of 1-methyl-4-phenylpyridinium; assay type: cell-based; settings: for Concentration-dependent inhibition of OCT3-dependent transport: model substrate, curve could not be generated
T3 sequence (O75751 1-556): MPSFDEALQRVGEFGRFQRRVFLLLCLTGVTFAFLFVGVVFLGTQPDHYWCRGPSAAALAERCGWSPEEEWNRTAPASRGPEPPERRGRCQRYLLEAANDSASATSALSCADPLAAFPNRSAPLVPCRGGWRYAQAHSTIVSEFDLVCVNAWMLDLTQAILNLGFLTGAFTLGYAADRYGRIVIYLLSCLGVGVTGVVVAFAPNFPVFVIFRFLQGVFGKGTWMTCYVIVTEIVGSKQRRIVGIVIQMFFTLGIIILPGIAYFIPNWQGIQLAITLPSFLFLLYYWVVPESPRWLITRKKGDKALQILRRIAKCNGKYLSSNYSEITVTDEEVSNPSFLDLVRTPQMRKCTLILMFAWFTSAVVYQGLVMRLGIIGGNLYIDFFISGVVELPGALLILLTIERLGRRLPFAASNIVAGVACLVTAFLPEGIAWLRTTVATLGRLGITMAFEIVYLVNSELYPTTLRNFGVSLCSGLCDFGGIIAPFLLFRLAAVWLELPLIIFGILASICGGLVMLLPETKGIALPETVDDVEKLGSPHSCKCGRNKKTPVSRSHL

[4] = molecular target: T4, MATE1 (Homo sapiens, UniProt Q96FL8); test: Inhibition of MATE1 transport of tetraethylammonium; assay type: cell-based
T4 sequence (Q96FL8 1-570): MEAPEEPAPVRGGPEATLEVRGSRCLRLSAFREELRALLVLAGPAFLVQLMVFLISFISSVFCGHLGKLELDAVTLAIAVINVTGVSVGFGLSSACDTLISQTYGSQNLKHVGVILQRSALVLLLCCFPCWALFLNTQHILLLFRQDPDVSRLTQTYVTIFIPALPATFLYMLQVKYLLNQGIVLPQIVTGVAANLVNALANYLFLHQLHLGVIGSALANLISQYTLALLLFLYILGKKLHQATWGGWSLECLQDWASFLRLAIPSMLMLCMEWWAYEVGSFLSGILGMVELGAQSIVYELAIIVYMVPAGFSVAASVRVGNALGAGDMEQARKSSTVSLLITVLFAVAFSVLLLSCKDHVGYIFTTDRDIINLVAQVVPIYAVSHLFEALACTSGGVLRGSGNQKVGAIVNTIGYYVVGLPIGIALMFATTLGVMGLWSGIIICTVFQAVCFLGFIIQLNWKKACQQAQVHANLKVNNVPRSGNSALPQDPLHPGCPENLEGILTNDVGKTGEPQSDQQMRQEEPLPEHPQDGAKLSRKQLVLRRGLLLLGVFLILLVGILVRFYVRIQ

[5] = molecular target: MATE2-K (Homo sapiens, UniProt Q86VL8); test: Inhibition of MATE2-K transport of tetraethylammonium; assay type: cell-based
MATE2-K (Homo sapiens, UniProt Q86VL8), sequence (Q86VL8 1-566 isoform Q86VL8-3): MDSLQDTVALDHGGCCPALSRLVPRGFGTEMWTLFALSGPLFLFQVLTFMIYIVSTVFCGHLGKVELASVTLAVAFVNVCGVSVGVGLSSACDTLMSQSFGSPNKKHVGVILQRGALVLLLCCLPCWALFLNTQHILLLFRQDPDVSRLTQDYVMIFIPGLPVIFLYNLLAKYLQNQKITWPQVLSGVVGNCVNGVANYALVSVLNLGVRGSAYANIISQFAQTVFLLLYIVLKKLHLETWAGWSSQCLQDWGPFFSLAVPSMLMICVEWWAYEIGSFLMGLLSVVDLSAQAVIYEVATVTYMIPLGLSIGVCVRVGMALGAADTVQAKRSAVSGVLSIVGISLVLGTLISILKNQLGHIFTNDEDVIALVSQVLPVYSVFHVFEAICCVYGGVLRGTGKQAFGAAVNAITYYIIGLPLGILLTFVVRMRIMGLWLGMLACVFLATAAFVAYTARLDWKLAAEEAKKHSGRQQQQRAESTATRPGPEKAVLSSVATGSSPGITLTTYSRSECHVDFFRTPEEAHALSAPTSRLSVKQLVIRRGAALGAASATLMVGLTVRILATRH

[6] = molecular target: T4, MATE1; test: Inhibition of MATE1-mediated creatinine transport; assay type: cell-based
[7] = molecular target: T2, OCT2; test: Cobicistat uptake in MDCKII cells transfected with OCT2; assay type: cell-based; settings: cobicistat 1 μmol/l; vs nontransfected MDCKII cells; 5% bovine serum albumin
[8] = system: human primary proximal tubule cells; test: Cobicistat uptake in fresh isolated primary proximal tubule cells; assay type: cell-based; settings: cobicistat 1 μmol/l; cimetidine 1500 μmol/l or probenecid 90 μmol/l
[9] = molecular target: T5, OAT3 (Homo sapiens, UniProt Q8TCC7); settings: cobicistat 1 μmol/l; HEK293; diclofenac or probenecid 90 μmol/l
T5 sequence (Q8TCC7 1-542): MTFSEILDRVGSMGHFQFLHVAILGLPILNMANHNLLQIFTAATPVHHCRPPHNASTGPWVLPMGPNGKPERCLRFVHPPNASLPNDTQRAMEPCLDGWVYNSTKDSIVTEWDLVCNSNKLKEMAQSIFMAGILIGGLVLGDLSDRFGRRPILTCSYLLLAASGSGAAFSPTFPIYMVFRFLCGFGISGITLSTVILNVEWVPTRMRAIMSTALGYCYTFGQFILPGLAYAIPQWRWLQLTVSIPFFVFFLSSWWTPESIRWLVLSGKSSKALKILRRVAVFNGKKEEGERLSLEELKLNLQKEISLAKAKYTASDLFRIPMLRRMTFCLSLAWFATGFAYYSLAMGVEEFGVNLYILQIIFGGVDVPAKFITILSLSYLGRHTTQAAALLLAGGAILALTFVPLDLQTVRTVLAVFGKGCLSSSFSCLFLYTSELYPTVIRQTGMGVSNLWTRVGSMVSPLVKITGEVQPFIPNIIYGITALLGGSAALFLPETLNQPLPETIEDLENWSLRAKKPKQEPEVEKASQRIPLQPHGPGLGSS

[10] = more modest effects, clinical; cited from earlier work
[11] = cited from earlier work
[12] = clinical plasma concentration; cited from earlier work
[13] = molecular target: T2, OCT2; test: Inhibition of OCT2-dependent metformin transport; assay type: cell-based
[14] = most prominent effects, clinical; cited from earlier work
[15] = system: MATE1; settings: read-out: Ki MATE1; cited from earlier work
[16] = system: MATE2-K; settings: read-out: Ki MATE2-K; cited from earlier work

IC50 [1]	IC50 [2]	IC50 [3]	IC50 [4]	IC50 [5]	IC50 [6]	Increase in cobicistat accumulation in cells transfected with OCT2 [7]	Inhibitor-sensitive accumulation in cells transfected with OAT3 [9]	IC50 [13]	SMILES	Concentration-dependent inhibition of OCT3-dependent transport [3]	Transporter-dependent uptake in primary proximal tubule cells [8]	Serum creatinine increases [10]	Maximum plasma concentration ([11]; clinical)	Renal elimination ([11]; in humans)	Bound to plasma proteins [12]	Concentration-dependent inhibition of OAT2-dependent transport ([1]; model substrate, curve could not be generated)	Decreases in creatinine clearance [14]	Ki [15]	Ki [16]
> 100000 nM	24000 ± 4600 nM	> 100000 nM	1870 ± 220 nM	33500 ± 4200 nM	990 nM	2.9 fold	no inhibitor-sensitive accumulation	–	CC(C)c1nc(CN(C)C(=O)N[C@@H](CCN2CCOCC2)C(=O)N[C@H](CC[C@H](Cc2ccccc2)NC(=O)OCc2cncs2)Cc2ccccc2)cs1 [Cobicistat, cobicistat]	lack of concentration-dependent inhibition	small but reproducible decreases in accumulation in the presence of the transport inhibitors cimetidine or probenecid	~0.1 mg/dL	1.4 µmol/L	approximately 8%	over 90%	–	–	–	–
> 100000 nM	66 ± 3 nM	> 100000 nM	4670 ± 1110 nM	> 100000 nM	–	–	–	110 nM	C[C@@H]1CCO[C@H]2Cn3cc(C(=O)NCc4ccc(F)cc4F)c(=O)c(O)c3C(=O)N12 [Dolutegravir, dolutegravir]	lack of concentration-dependent inhibition	–	~0.1 mg/dL	–	–	–	lack of concentration-dependent inhibition	–	–	–
–	–	–	–	–	–	–	–	–	CCc1nc(N)nc(N)c1-c1ccc(Cl)cc1 [Pyrimethamine, pyrimethamine]	–	–	–	–	–	–	–	15–34 ml/min per 1.73 m^2	93 nM	59 nM
